In data set [1] the test system is PC-3. The data set can be described thus: Cytotoxicity against human PC3 cells after 72 hrs by MTT assay. The following applies: PC-3, 72 h. In kind it is functional, cell-based.
Another data set has as its system DU-145. The data set can be described thus: Cytotoxicity against human DU145 cells after 72 hrs by MTT assay. In kind it is functional, cell-based. As to conditions: DU-145, 72 h. Background: Tetrazolium assays rely on reduction of a dye to a coloured formazan, in cell work by metabolically active cells.
A short description of data set [2]: Oral bioavailability in rat at 25 mg/kg, po. It counts as ADME, organism-based. The following applies: in vivo.
A short description of data set [3]: Half life in rat at 5 mg/kg, iv. It counts as ADME, organism-based. Further details: dose 5 mg/kg, route intravenous. The following applies: in vivo.
A short description of data set [4]: Cmax in rat at 25 mg/kg, po. It counts as ADME, organism-based. Further details: dose 25 mg/kg, route oral. The following applies: in vivo.
A short description of data set [5]: Apparent volume of distribution in rat at 5 mg/kg, iv. It counts as ADME, organism-based. Further details: dose 5 mg/kg, route intravenous. The following applies: in vivo, read-out: Vz.
Data set [6] in a line: Clearance in rat at 5 mg/kg, iv. In kind it is ADME, organism-based. On the set-up: dose 5 mg/kg, route intravenous. The following applies: in vivo.
For data set [7], the system named is PC-3. Briefly: Disruption of microtubule network in human PC3 cells after 1 hr. It counts as functional, cell-based.
The species entered for another data set is Bos taurus. Briefly: Inhibition of bovine tubulin polymerization at 3 uM.
Data set [8] deals with PC-3. The data set can be described thus: Cell cycle arrest in human PC3 cells assessed as accumulation in G2/M phase after 1 hr. In kind it is functional, cell-based.
Data set [9] in a line: Half life in rat at 5 mg/kg, iv in presence of captisol. It counts as ADME, organism-based. On the set-up: dose 5 mg/kg, route intravenous. As to conditions: in vivo.
Data set [10] can be described thus: Clearance in rat at 5 mg/kg, iv in presence of captisol. In kind it is ADME, organism-based. On the set-up: dose 5 mg/kg, route intravenous. As to conditions: in vivo.
Data set [11] can be described thus: Apparent volume of distribution in rat at 5 mg/kg, iv in presence of captisol. In kind it is ADME, organism-based. Further details: dose 5 mg/kg, route intravenous. As to conditions: in vivo, read-out: Vz.

The structures appear in SMILES notation. Active and inactive are the calls of the source. The calls are words filed in the database; no cut-off is given here.

For the compound `CCCC(=O)Nc1ccc(-c2cncc(NC(CCC)c3cccnc3)n2)cc1OC` (stereo not drawn), in the data set with PC-3 [1], the IC50 (commonly the midpoint of a concentration-inhibition curve) is 600 nM.
As to `CCCC(Nc1cncc(-c2ccc(O)c(OC)c2)n1)c1cccnc1` (stereo not drawn), the figures for the IC50 in the data set on PC-3 [1] and with DU-145 were 300 nM and 600 nM, respectively.
`CCC[C@H](Nc1cc(-c2ccc(NC(=O)NCC)c(OC)c2)ncn1)c1cccnc1`: the 50% inhibitory concentration (IC50) in the data set with PC-3 [1] and with DU-145 was 100 nM each time.
For the compound `CCC[C@H](Nc1nc(-c2ccc(NC(=O)NCC)c(OC)c2)ncc1C)c1cccnc1` [LEXIBULIN], the bioavailability (as a rule, the share of a dose that reaches the circulation, judged against a reference dose that is usually intravenous) in [2] was 78%. Also, the concentration for half-maximal inhibition (IC50) in the data set with PC-3 [1] and in the data set on DU-145 was 60 nM in each case. In addition, the half-life (usually how long it takes for the measured level to halve) in data set [3] was 96 min. Further, in data set [4], the peak concentration (Cmax) (usually the peak of the concentration-time curve) turned out to be 9.4 µM. Also, in data set [5], the Vd came out at 5.2 L/kg. Moreover, the clearance (commonly a measure of how efficiently the substance is removed, as volume per time) in [6] came out at 36.8 mL/min/kg.
Turning to `CCCC(Nc1cncc(-c2ccc(O)c(OC)c2)n1)c1ccc(OC)cc1` (stereo not drawn), the IC50 in the data set on PC-3 [1] and in the data set with DU-145 was 3000 nM throughout.
Consider `CCC[C@H](Nc1cncc(-c2ccc(O)c(OC)c2)n1)c1ccccc1`, for which the concentration for half-maximal inhibition (IC50) with PC-3 [1] came out at 160 nM; in the data set on DU-145, 200 nM.
On the same counts, the results for `CCCC(Nc1cncc(-c2ccc(O)c(OC)c2)n1)c1cccc(OC)c1` (stereo not drawn) are 10000 nM and 1000 nM.
The matching figures for `COc1cc(-c2cncc(N[C@@H](C)c3ccccc3)n2)ccc1O`: 10000 nM and 3000 nM.
On the same counts, the results for `CCC[C@H](Nc1cc(C)nc(-c2ccc(NC(=O)NCC)c(OC)c2)n1)c1cccnc1` are 200 nM and 200 nM.
As to `CCCC(Nc1cncc(-c2ccc(O)c(OC)c2)n1)c1ccccc1` (stereo not drawn), the values for the IC50 with PC-3 [1] and with DU-145 were 160 nM and 500 nM, respectively.
For `CCC[C@H](Nc1cncc(-c2ccc(NC(=O)NCC)c(OC)c2)n1)c1cccnc1`, the result in the data set on PC-3 [7] and in the data set with PC-3 [8] was Active. Moreover, in the data set listed under Bos taurus, the inhibition result is “Active”. Moreover, in data set [9], the half-life is 36 min. In addition, in data set [10], the clearance was 127 mL/min/kg. Further, the Vd in [11] was determined as 7.1 L/kg.
As for `CCCC(Nc1cncc(-c2ccc(NC(=O)NCCN(C)C)c(OC)c2)n1)c1cccnc1` (stereo not drawn), the IC50 in the data set on PC-3 [1] and in the data set with DU-145 was 1000 nM throughout.
With `CCCC(Nc1cncc(-c2ccc(O)c(OC(C)C)c2)n1)c1cccnc1` (stereo not drawn), the IC50 with PC-3 [1] and with DU-145 was 10000 nM throughout.
As to `CCCC(Nc1cncc(-c2ccc(O)c(OC)c2)n1)c1ccc(Cl)cc1` (stereo not drawn), the concentration for half-maximal inhibition (IC50) came out at 20000 nM in the data set on PC-3 [1] and 10000 nM in the data set on DU-145.
The matching figures for `CCC[C@H](Nc1ccnc(-c2ccc(NC(=O)NCC)c(OC)c2)n1)c1cccnc1`: 150 nM and 200 nM.
As to `CCCC(Nc1cncc(-c2ccc(O)c(OC)c2)n1)c1ccc(F)cc1` (stereo not drawn), 4000 nM corresponded to half-maximal inhibition in the data set with DU-145 (IC50).
As for `CCC[C@H](Nc1cc(-c2ccc(NC(=O)NCC)c(OC)c2)nc(C)n1)c1cccnc1`, the figures for the half-inhibitory concentration (IC50) with PC-3 [1] and with DU-145 were 80 nM and 100 nM, respectively.
The compound `CCCC(Nc1cncc(-c2ccc(NC(C)=O)c(OC)c2)n1)c1cccnc1` (stereo not drawn) showed a half-maximal inhibitory concentration (IC50) in the data set on PC-3 [1] of 5000 nM. That is a single-digit micromolar value.
Take `CC[C@H](Nc1cncc(-c2ccc(O)c(OC)c2)n1)c1ccccc1`: the half-maximal inhibitory concentration (IC50) in the data set with PC-3 [1] and with DU-145 was 10000 nM throughout.
Consider `CCCC(Nc1cncc(-c2ccc(NC(=O)NCC)c(CC)c2)n1)c1cccnc1` (stereo not drawn), for which the IC50 in the data set on PC-3 [1] stood at 160 nM; in the data set on DU-145, 100 nM.
The matching figures for `CCCC(Nc1cncc(-c2ccc(O)c(OC)c2)n1)c1cccc(Cl)c1` (stereo not drawn): 1000 nM and 600 nM.
On the same counts, the results for `CCCC(Nc1cncc(-c2ccc(NC(=O)NCC)c(OC)c2)n1)c1cccnc1` (stereo not drawn) are 40 nM and 60 nM.
As to `CCCC(Nc1cncc(-c2ccc(O)c(OC)c2)n1)c1cccc(F)c1` (stereo not drawn), the IC50 amounted to 600 nM in the data set on PC-3 [1] and 300 nM with DU-145.
On to `CCCC(Nc1cncc(-c2ccc(O)c(OCC)c2)n1)c1cccnc1` (stereo not drawn), for which the IC50 in the data set with PC-3 [1] turned out to be 1000 nM.

The values above are taken from ChEMBL document CHEMBL1153491, “Discovery of CYT997: a structurally novel orally active microtubule targeting agent” (Bioorg Med Chem Lett, 2009).
